Bounds are passed on as bounds.

The target of the first assay is GST tagged truncated human mutant G2019S LRRK2 (Homo sapiens (Human), UniProt Q5S007, G2019S). The assay is described as follows: LRRK2 Km ATP LanthaScreen Assay. The format is biochemical. Particulars: G2019S LRRK2, 134 μM ATP (Km ATP), mean values. The essentials: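 Enzyme (GST-tagged, truncated) was preincubated with compound for 15 min at RT in 50 mM Tris pH 8.5, 10 mM MgCl2, 0.01% Brij-35, 1 mM EGTA, 2 mM DTT and 0.05 mM orthovanadate. Fluorescein-LRRKtide and 134 μM ATP (Km) were then added for 90 min. EDTA and Tb-anti-pERM antibody stopped the reaction; the TR-FRET 520/495 ratio gave 4-parameter IC50s, reported as mean pIC50.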
GST tagged truncated human mutant G2019S LRRK2, sequence (Q5S007 970-2527 G2019S): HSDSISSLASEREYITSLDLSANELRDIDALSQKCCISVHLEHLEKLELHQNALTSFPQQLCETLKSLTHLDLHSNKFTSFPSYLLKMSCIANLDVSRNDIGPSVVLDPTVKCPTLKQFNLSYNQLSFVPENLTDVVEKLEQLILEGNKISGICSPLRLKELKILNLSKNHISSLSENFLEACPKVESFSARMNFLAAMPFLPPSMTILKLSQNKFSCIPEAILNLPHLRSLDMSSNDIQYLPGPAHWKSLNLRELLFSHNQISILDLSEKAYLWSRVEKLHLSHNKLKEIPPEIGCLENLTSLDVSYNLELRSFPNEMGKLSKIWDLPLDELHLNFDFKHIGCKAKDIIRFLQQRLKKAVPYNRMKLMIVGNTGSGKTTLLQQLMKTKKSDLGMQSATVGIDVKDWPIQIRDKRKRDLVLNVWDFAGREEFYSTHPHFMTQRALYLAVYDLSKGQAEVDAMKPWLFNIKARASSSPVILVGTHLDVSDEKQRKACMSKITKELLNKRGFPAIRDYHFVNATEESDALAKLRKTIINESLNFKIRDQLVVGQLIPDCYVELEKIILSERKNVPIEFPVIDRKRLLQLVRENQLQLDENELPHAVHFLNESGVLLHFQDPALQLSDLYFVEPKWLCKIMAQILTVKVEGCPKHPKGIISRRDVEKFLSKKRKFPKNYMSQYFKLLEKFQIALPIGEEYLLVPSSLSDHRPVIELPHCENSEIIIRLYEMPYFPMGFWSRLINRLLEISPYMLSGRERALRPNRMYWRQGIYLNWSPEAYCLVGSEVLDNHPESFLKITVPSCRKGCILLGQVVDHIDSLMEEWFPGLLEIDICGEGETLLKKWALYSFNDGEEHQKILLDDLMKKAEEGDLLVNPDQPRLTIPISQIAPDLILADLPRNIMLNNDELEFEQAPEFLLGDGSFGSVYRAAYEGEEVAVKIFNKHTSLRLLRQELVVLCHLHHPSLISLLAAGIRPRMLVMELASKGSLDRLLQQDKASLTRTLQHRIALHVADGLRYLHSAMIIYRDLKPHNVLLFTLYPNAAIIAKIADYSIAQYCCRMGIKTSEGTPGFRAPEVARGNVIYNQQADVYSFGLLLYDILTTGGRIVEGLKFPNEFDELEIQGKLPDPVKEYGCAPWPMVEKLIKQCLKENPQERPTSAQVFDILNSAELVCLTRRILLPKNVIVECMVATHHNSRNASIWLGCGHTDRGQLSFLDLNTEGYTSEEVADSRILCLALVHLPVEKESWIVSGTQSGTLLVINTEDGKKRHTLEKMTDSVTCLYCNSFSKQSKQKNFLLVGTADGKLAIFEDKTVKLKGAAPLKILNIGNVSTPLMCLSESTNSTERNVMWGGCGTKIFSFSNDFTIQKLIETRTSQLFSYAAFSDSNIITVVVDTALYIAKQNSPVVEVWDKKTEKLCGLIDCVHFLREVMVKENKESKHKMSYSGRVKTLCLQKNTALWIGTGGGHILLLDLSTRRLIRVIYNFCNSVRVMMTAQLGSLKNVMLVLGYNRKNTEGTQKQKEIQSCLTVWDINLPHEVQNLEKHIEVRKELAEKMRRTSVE
With `Cc1c(Nc2ncc3cc(Cl)c([C@H]4CCN(C5COC5)C[C@@H]4F)cc3n2)cnn1C1CC1(F)F` (single isomer, unassigned) [Ex-4.176, (R)(3S,4S) or (S)(3S,4S) or (R)(3R,4R) or (S)(3R,4R) 6-chloro-N-[1-(2,2-difluorocyclopropyl)-5-methyl-1H-pyrazol-4-yl]-7-[(3R,4R)-3-fluoro-1-(oxetan-3-yl)piperidin-4-yl]quinazolin-2-amine], the “LRRK2 pIC50” value was 8.73. For `Cc1c(Nc2ncc3cc(Cl)c([C@@H]4CCN(C5COC5)C[C@H]4F)cc3n2)cnn1C1CC1(F)F` (single isomer, unassigned) [Ex-4.177, (R)(3S,4S) or (S)(3S,4S) or (R)(3R,4R) or (S)(3R,4R) 6-chloro-N-[1-(2,2-difluorocyclopropyl)-5-methyl-1H-pyrazol-4-yl]-7-[(3R,4R)-3-fluoro-1-(oxetan-3-yl)piperidin-4-yl]quinazolin-2-amine], the “LRRK2 pIC50” value worked out at 9.16.

Turning to `Cc1c(Nc2ncc3cc(Cl)c([C@@H]4CCN(C5COC5)C[C@H]4F)cc3n2)cnn1C1CC1(F)F` (single isomer, unassigned) [Ex-4.178, (R)(3S,4S) or (S)(3S,4S) or (R)(3R,4R) or (S)(3R,4R) 6-chloro-N-[1-(2,2-difluorocyclopropyl)-5-methyl-1H-pyrazol-4-yl]-7-[(3R,4R)-3-fluoro-1-(oxetan-3-yl)piperidin-4-yl]quinazolin-2-amine], the “LRRK2 pIC50” value came out at 8.58. As for `Cc1c(Nc2ncc3cc(Cl)c([C@@H]4CCN([C@H]5COC[C@H]5O)C[C@H]4F)cc3n2)cnn1C1CC1(F)F` (single isomer, unassigned) [Ex-4.180, (R)(3S,4S)(3S,4S) or (R)(3S,4S)(3R,4R) or (R)(3R,4R)(3S,4S) or (R)(3R,4R)(3R,4R) or (S)(3S,4S)(3S,4S) or (S)(3S,4S)(3R,4R) or (S)(3R,4R)(3S,4S) or (S)(3R,4R)(3R,4R) 4-(4-(6-chloro-2-((1-(2,2-difluorocyclopropyl)-5-methyl-1H-pyrazol-4-yl)amino)quinazolin-7-yl)-3-fluoropiperidin-1-yl)tetrahydrofuran-3-olyl]amino}quinazolin-7-yl)-3-fluoropiperidin-1-yl]oxolan-3-ol], the “LRRK2 pIC50” value is recorded as >9.20. On the same count and under the same terms, with `Cc1c(Nc2ncc3cc(Cl)c([C@@H]4CCN([C@@H]5COC[C@@H]5O)C[C@H]4F)cc3n2)cnn1C1CC1(F)F` (single isomer, unassigned) [Ex-4.181, (R)(3S,4S)(3S,4S) or (R)(3S,4S)(3R,4R) or (R)(3R,4R)(3S,4S) or (R)(3R,4R)(3R,4R) or (S)(3S,4S)(3S,4S) or (S)(3S,4S)(3R,4R) or (S)(3R,4R)(3S,4S) or (S)(3R,4R)(3R,4R) 4-(4-(6-chloro-2-((1-(2,2-difluorocyclopropyl)-5-methyl-1H-pyrazol-4-yl)amino)quinazolin-7-yl)-3-fluoropiperidin-1-yl)tetrahydrofuran-3-olyl]amino}quinazolin-7-yl)-3-fluoropiperidin-1-yl]oxolan-3-ol] the figure was >9.20; with `Cc1c(Nc2ncc3cc(Cl)c(C4CCN([C@@H]5COC[C@@H]5O)CC4)cc3n2)cnn1C1CC1(F)F` (single isomer, unassigned) [Ex-4.182, (R)(3S,4S) or (S)(3S,4S) or (R)(3R,4R) or (S)(3R,4R) 4-[4-(6-chloro-2-{[1-(2,2-difluorocyclopropyl)-5-methyl-1H-pyrazol-4-yl]amino}quinazolin-7-yl)piperidin-1-yl]oxolan-3-ol], >9.20.

For the molecule `Cc1c(Nc2ncc3cc(Cl)c(C4CCN([C@H]5COC[C@H]5O)CC4)cc3n2)cnn1C1CC1(F)F` (single isomer, unassigned) [Ex-4.183, (R)(3S,4S) or (S)(3S,4S) or (R)(3R,4R) or (S)(3R,4R) 4-[4-(6-chloro-2-{[1-(2,2-difluorocyclopropyl)-5-methyl-1H-pyrazol-4-yl]amino}quinazolin-7-yl)piperidin-1-yl]oxolan-3-ol], the “LRRK2 pIC50” value is reported as >9.20. Same read-out and setting: under `O[C@@H]1COCC1N1CC[C@H](c2cc3nc(Nc4cnn(C5CC5(F)F)c4Cl)ncc3cc2Cl)[C@@H](F)C1` (single isomer, unassigned) [Ex-4.184, (R)(3S,4S)(3S,4S) or (R)(3S,4S)(3R,4R) or (R)(3R,4R)(3S,4S) or (R)(3R,4R)(3R,4R) or (S)(3S,4S)(3S,4S) or (S)(3S,4S)(3R,4R) or (S)(3R,4R)(3S,4S) or (S)(3R,4R)(3R,4R) 4-(6-chloro-2-{[5-chloro-1-(2,2-difluorocyclopropyl)-1H-pyrazol-4-yl]amino}quinazolin-7-yl)-3-fluoropiperidin-1-yl]oxolan-3-ol] stands >9.20. `Cn1ncc(Nc2ncc3cc(Cl)c([C@@H]4CCN([C@H]5COC[C@H]5O)C[C@H]4F)cc3n2)c1Cl` (single isomer, unassigned) [Ex-4.185, (3S,4S)(3S,4S) or (3S,4S)(3R,4R) or (3R,4R)(3S,4S) or (3R,4R)(3R,4R) 4-(4-{6-chloro-2-[(5-chloro-1-methyl-1H-pyrazol-4-yl)amino]quinazolin-7-yl}-3-fluoropiperidin-1-yl)oxolan-3-ol]: the “LRRK2 pIC50” value stood at 9.17. As to `Cn1ncc(Nc2ncc3cc(Cl)c([C@@H]4CCN([C@@H]5COC[C@@H]5O)C[C@H]4F)cc3n2)c1Cl` (single isomer, unassigned) [Ex-4.186, (3S,4S)(3S,4S) or (3S,4S)(3R,4R) or (3R,4R)(3S,4S) or (3R,4R)(3R,4R) 4-(4-{6-chloro-2-[(5-chloro-1-methyl-1H-pyrazol-4-yl)amino]quinazolin-7-yl}-3-fluoropiperidin-1-yl)oxolan-3-ol], the “LRRK2 pIC50” value came to 7.95.

As to `Cc1c(Nc2ncc3cc(Cl)c(C4CCN(C(=O)[C@@H](C)O)C4)cc3n2)cnn1C1CC1` (single isomer, unassigned) [Ex-4.187, (2R)(3S) or (2R)(3R) 1-(3-{6-chloro-2-[(1-cyclopropyl-5-methyl-1H-pyrazol-4-yl)amino]quinazolin-7-yl}pyrrolidin-1-yl)-2-hydroxypropan-1-one], the “LRRK2 pIC50” value is 8.54. Still for that read-out and setting: under `Cn1ncc(Nc2ncc3cc(Cl)c([C@H]4CCN([C@H]5COC[C@H]5O)C[C@@H]4F)cc3n2)c1Cl` (single isomer, unassigned) [Ex-4.188, (3S,4S)(3S,4S) or (3S,4S)(3R,4R) or (3R,4R)(3S,4S) or (3R,4R)(3R,4R) 4-(4-{6-chloro-2-[(5-chloro-1-methyl-1H-pyrazol-4-yl)amino]quinazolin-7-yl}-3-fluoropiperidin-1-yl)oxolan-3-ol] stands 7.83; under `Cn1ncc(Nc2ncc3cc(Cl)c([C@H]4CCN([C@@H]5COC[C@@H]5O)C[C@@H]4F)cc3n2)c1Cl` (single isomer, unassigned) [Ex-4.189, (3S,4S)(3S,4S) or (3S,4S)(3R,4R) or (3R,4R)(3S,4S) or (3R,4R)(3R,4R) 4-(4-{6-chloro-2-[(5-chloro-1-methyl-1H-pyrazol-4-yl)amino]quinazolin-7-yl}-3-fluoropiperidin-1-yl)oxolan-3-ol], >9.20; under `Cc1c(Nc2ncc3cc(Cl)c(C4CCN(C(=O)[C@H](C)O)C4)cc3n2)cnn1C1CC1` (single isomer, unassigned) [Ex-4.190, (2S)(3S) or (2S)(3R) 1-(3-{6-chloro-2-[(1-cyclopropyl-5-methyl-1H-pyrazol-4-yl)amino]quinazolin-7-yl}pyrrolidin-1-yl)-2-hydroxypropan-1-one], 8.73.

Staying with this assay, now noted: G2019S LRRK2, 134 μM ATP (Km ATP), mean values; read-out: LRRK2 pIC50 (converted).
For the molecule `Cc1c(Nc2ncc3cc(Cl)c(C4CCN(C5COC5)CC4)cc3n2)cnn1C1CC1(F)F` (single isomer, unassigned) [Ex-4.179, (R) or (S) 6-chloro-N-[1-(2,2-difluorocyclopropyl)-5-methyl-1H-pyrazol-4-yl]-7-[1-(oxetan-3-yl)piperidin-4-yl]quinazolin-2-amine], the IC50 is < 0.631 nM. `Cc1c(Nc2ncc3cc(Cl)c(C4CCN(CC(O)CC(F)(F)F)CC4)cc3n2)cnn1C1CC1` (single isomer, unassigned) [Ex-4.191, (S) or (R) 1-(4-{6-chloro-2-[(1-cyclopropyl-5-methyl-1H-pyrazol-4-yl)amino]quinazolin-7-yl}piperidin-1-yl)-4,4,4-trifluorobutan-2-ol]: the IC50 was < 0.631 nM.

For the molecule `Cc1c(Nc2ncc3cc(Cl)c(C4CCN(CC(O)CC(F)(F)F)CC4)cc3n2)cnn1C1CC1` (single isomer, unassigned) [Ex-4.192, (S) or (R) 1-(4-{6-chloro-2-[(1-cyclopropyl-5-methyl-1H-pyrazol-4-yl)amino]quinazolin-7-yl}piperidin-1-yl)-4,4,4-trifluorobutan-2-ol], the IC50 was 1.74 nM.

With `Cc1c(Nc2ncc3cc(Cl)c(C4CCN(CC(O)Cc5ccccc5)CC4)cc3n2)cnn1C1CC1` (single isomer, unassigned) [Ex-4.218, (S) or (R) 1-(4-{6-chloro-2-[(1-cyclopropyl-5-methyl-1H-pyrazol-4-yl)amino]quinazolin-7-yl}piperidin-1-yl)-3-phenylpropan-2-ol], the IC50 was 13.8 nM. Same read-out and setting: under `Cc1c(Nc2ncc3cc(Cl)c(C4CCN(CC(O)Cc5ccccc5)CC4)cc3n2)cnn1C1CC1` (single isomer, unassigned) [Ex-4.219, (S) or (R) 1-(4-{6-chloro-2-[(1-cyclopropyl-5-methyl-1H-pyrazol-4-yl)amino]quinazolin-7-yl}piperidin-1-yl)-3-phenylpropan-2-ol] stands 4.68 nM. On to `Cc1c(Nc2ncc3cc(Cl)c(C4CCN(CC(O)c5ccc(C#N)cc5)CC4)cc3n2)cnn1C1CC1` (single isomer, unassigned) [Ex-4.220, (S) or (R) 4-[2-(4-{6-chloro-2-[(1-cyclopropyl-5-methyl-1H-pyrazol-4-yl)amino]quinazolin-7-yl}piperidin-1-yl)-1-hydroxyethyl]benzonitrile], for which the IC50 is 6.17 nM.

Values taken from patent publication US12540131B2 (Merck Sharp & Dohme LLC, priority 2019, dated 2026).
